From ChEMBL document CHEMBL1697821, “Development of a phospholipidosis database and predictive quantitative structure-activity relationship (QSAR) models” (Toxicol Mech Methods, 2008)

Tested on: Phospholipidosis
Test: Literature-mined public compounds from Kruhlak et al phospholipidosis modelling dataset

Row | SMILES | Phospholipidosis
1 | CN(C)CCCN1c2ccccc2CCc2ccccc21 [IMIPRAMINE] | Positive: strong inducer confirmed by electron microscopy
2 | CCN(CC)CCNC(=O)c1ccc(N)cc1 [PROCAINAMIDE] | Negative: confirmed by electron microscopy
3 | CC(=O)Oc1cc(C(C)C)c(OCCN(C)C)cc1C [MOXISYLYTE] | Negative: based on the absence of positive reported data from WMDD
4 | COc1cccc2c1C(=O)c1c(O)c3c(c(O)c1C2=O)C[C@@](O)(C(=O)CO)C[C@@H]3O[C@H]1C[C@H](N)[C@@H](O)[C@H](C)O1 [EPIRUBICIN] | Negative: based on the absence of positive reported data from WMDD
5 | C[C@H]1COc2c(N3CCN(C)CC3)c(F)cc3c(=O)c(C(=O)O)cn1c23.C[C@H]1COc2c(N3CCN(C)CC3)c(F)cc3c(=O)c(C(=O)O)cn1c23.O [LEVOFLOXACIN] | Negative: confirmed by electron microscopy
6 | CCCCC[C@H](O)/C=C/[C@@H]1[C@H]2C/C(=C/CCCC(=O)O)O[C@H]2C[C@H]1O [EPOPROSTENOL] | Negative: based on the absence of positive reported data from WMDD
7 | CC(=O)OCC1=C(C(=O)O)N2C(=O)[C@@H](NC(=O)[C@H](N)c3ccccc3)[C@H]2SC1 [CEPHALOGLYCIN] | Negative: based on the absence of positive reported data from WMDD
8 | COCCOc1cnc(NS(=O)(=O)c2ccccc2)nc1 [GLYMIDINE] | Negative: based on the absence of positive reported data from WMDD
9 | FC(F)(F)c1ccc(-c2ccc(OCCN3CCCC3)cc2)cc1 [BOXIDINE] | Positive: strong inducer confirmed by electron microscopy
10 | C1CNCCN1.C[C@]12CC[C@@H]3c4ccc(OS(=O)(=O)O)cc4CC[C@H]3[C@@H]1CCC2=O [ESTROPIPATE] | Negative: based on the absence of positive reported data from WMDD
11 | CN1CC[C@]23c4c5ccc(O)c4O[C@H]2C(=O)CC[C@@]3(O)[C@H]1C5 [OXYMORPHONE] | Negative: based on the absence of positive reported data from WMDD
12 | CCN(CC)Cc1cc(Nc2ccnc3cc(Cl)ccc23)ccc1O.Cl | Positive: weak inducer based on presence of foamy macrophages and cytoplasmic vacuolations
13 | O=C(O)CCC(=O)O [SUCCINIC ACID] | Negative: based on the absence of positive reported data from WMDD
14 | CC12CC3CC(C)(C1)CC(N)(C3)C2 [MEMANTINE] | Positive: weak inducer based on presence of foamy macrophages and cytoplasmic vacuolations
15 | O=C(NC1CCN(CCc2c[nH]c3ccccc23)CC1)c1ccccc1 [INDORAMIN] | Positive: strong inducer confirmed by electron microscopy
16 | CN/C(=N/CCSCc1nc[nH]c1C)NC#N [CIMETIDINE] | Negative: confirmed by electron microscopy
17 | CCOC(=O)/C=C(C)/C=C/C=C(C)/C=C/c1c(C)cc(OC)c(C)c1C [ETRETINATE] | Negative: based on the absence of positive reported data from WMDD
18 | CC(O)Cn1cnc2c1c(=O)n(C)c(=O)n2C (centres undefined) [PROXYPHYLLINE] | Negative: based on the absence of positive reported data from WMDD
19 | Nc1ncnc2nc[nH]c12 [ADENINE] | Negative: based on the absence of positive reported data from WMDD
20 | C[C@]12C=CC(=O)C=C1C(Cl)=C[C@@H]1[C@@H]2[C@@H](O)C[C@@]2(C)[C@H]1CC[C@]2(O)C(=O)CO [CLOPREDNOL] | Negative: based on the absence of positive reported data from WMDD

Row | SMILES | Phospholipidosis
21 | Clc1ccc(C(c2ccccc2)N2CCNCC2)cc1 (centres undefined) [NORCHLORCYCLIZINE] | Positive: strong inducer confirmed by electron microscopy
22 | C[C@H]1[C@H]2Cc3ccc(O)cc3[C@]1(C)CCN2CC1CC1 [CYCLAZOCINE] | Negative: based on the absence of positive reported data from WMDD
23 | CCCNC(=O)NS(=O)(=O)c1ccc(Cl)cc1 [CHLORPROPAMIDE] | Negative: based on the absence of positive reported data from WMDD
24 | O=C1CCC(N2C(=O)c3ccccc3C2=O)C(=O)N1 (centres undefined) [THALIDOMIDE] | Negative: based on the absence of positive reported data from WMDD
25 | CSc1ccc2c(c1)N(CCC1CCCCN1C)c1ccccc1S2 (centres undefined) [THIORIDAZINE] | Positive: weak inducer based on presence of foamy macrophages and cytoplasmic vacuolations
26 | O=C(Cn1cnnn1)N[C@@H]1C(=O)N2C(C(=O)O)=C(CSc3nncs3)CS[C@H]12 [CEFTEZOLE] | Negative: based on the absence of positive reported data from WMDD
27 | CC(=O)Nc1c(I)cc(I)c(C(=O)O)c1I [ACETRIZOIC ACID] | Negative: based on the absence of positive reported data from WMDD
28 | O=C(OC[C@H]1O[C@](O)(COC(=O)c2cccnc2)[C@@H](OC(=O)c2cccnc2)[C@@H]1OC(=O)c1cccnc1)c1cccnc1 [NICOFURANOSE] | Negative: based on the absence of positive reported data from WMDD
29 | CC[C@]1(O)C[C@@H]2CN(CCc3c([nH]c4ccccc34)[C@@](C(=O)OC)(c3cc4c(cc3OC)N(C)[C@H]3[C@@](O)(C(=O)OC)[C@H](OC(C)=O)[C@]5(CC)C=CCN6CC[C@]43[C@@H]65)C2)C1 [VINBLASTINE] | Negative: confirmed by electron microscopy
30 | CN(C)CCOC(C)(c1ccccc1)c1ccccn1 (centres undefined) [DOXYLAMINE] | Negative: based on the absence of positive reported data from WMDD
31 | COC(=O)c1ccc(O)cc1 [METHYLPARABEN] | Negative: based on the absence of positive reported data from WMDD
32 | CCC(c1ccc2cc(OC)ccc2c1)C(C)(C)C(=O)O (centres undefined) | Negative: based on the absence of positive reported data from WMDD
33 | Clc1cccc(Cl)c1N=C1NCCN1 [CLONIDINE] | Negative: based on the absence of positive reported data from WMDD
34 | C#CC(O)(/C=C/Cl)CC (centres undefined) [ETHCHLORVYNOL] | Negative: based on the absence of positive reported data from WMDD
35 | CN(C)CCN(Cc1cccs1)c1ccccn1 | Negative: confirmed by electron microscopy
36 | C=CC1=C(C)/C(=C/c2[nH]c(Cc3[nH]c(/C=C4\NC(=O)C(C)=C4C=C)c(C)c3CCC(=O)O)c(CCC(=O)O)c2C)NC1=O [BILIRUBIN] | Positive: strong inducer confirmed by electron microscopy
37 | O=C1CN(/N=C/c2ccc([N+](=O)[O-])o2)C(=O)N1 [NITROFURANTOIN] | Negative: based on the absence of positive reported data from WMDD
38 | Sc1ncnc2nc[nH]c12 [MERCAPTOPURINE ANHYDROUS] | Negative: based on the absence of positive reported data from WMDD
39 | C[N+](C)(C)CCCCCCCCCC[N+](C)(C)C.[Br-].[Br-] [DECAMETHONIUM BROMIDE] | Negative: based on the absence of positive reported data from WMDD
40 | CCC(=O)c1ccc(O)cc1 [PAROXYPROPIONE] | Negative: based on the absence of positive reported data from WMDD

Row | SMILES | Phospholipidosis
41 | NS(=O)(=O)c1cc2c(cc1Cl)N=CNS2(=O)=O [CHLOROTHIAZIDE] | Negative: based on the absence of positive reported data from WMDD
42 | CC1=C(/C=C/C(C)=C/C=C/C(C)=C/C=C/C=C(C)/C=C/C=C(C)/C=C/C2=C(C)CCCC2(C)C)C(C)(C)CCC1 [BETA CAROTENE] | Negative: based on the absence of positive reported data from WMDD
43 | CC(=O)OCC(=O)[C@@]1(O)[C@@H](C)C[C@H]2[C@@H]3CCC4=CC(=O)C=C[C@]4(C)[C@@]3(F)[C@@H](O)C[C@@]21C [BETAMETHASONE ACETATE] | Negative: based on the absence of positive reported data from WMDD
44 | O=c1[nH]cc(F)c(=O)[nH]1 [FLUOROURACIL] | Negative: based on the absence of positive reported data from WMDD
45 | CCOC(=O)C1(c2ccccc2)CCN(CCc2ccc(N)cc2)CC1 [ANILERIDINE] | Negative: based on the absence of positive reported data from WMDD
46 | C[n+]1ccc(-c2cc[n+](C)cc2)cc1 | Positive: strong inducer confirmed by electron microscopy
47 | CCCCC(=O)O[C@]1(C(=O)COC(C)=O)CC[C@H]2[C@@H]3CCC4=CC(=O)C=C[C@]4(C)[C@H]3[C@@H](O)C[C@@]21C [PREDNISOLONE VALERATE ACETATE] | Negative: based on the absence of positive reported data from WMDD
48 | CC(=O)[C@@]1(O)CC[C@H]2[C@@H]3C=C(Cl)C4=CC(=O)[C@@H]5C[C@@H]5[C@]4(C)[C@H]3CC[C@@]21C [CYPROTERONE] | Negative: based on the absence of positive reported data from WMDD
49 | CCC(C)(C)N/C(N)=N/C#N [GUANCYDINE] | Negative: based on the absence of positive reported data from WMDD
50 | O=C1CSC2(CCN(CCCN3c4ccccc4Sc4ccc(Cl)cc43)CC2)N1 [SPICLOMAZINE] | Negative: based on the absence of positive reported data from WMDD
51 | COCCc1ccc(OCC(O)CNC(C)C)cc1 (centres undefined) [METOPROLOL] | Negative: based on the absence of positive reported data from WMDD
52 | C[C@H]1CCC[C@H](O)CCCCCc2cc(O)cc(O)c2C(=O)O1 [ZERANOL] | Negative: based on the absence of positive reported data from WMDD
53 | CS(=O)(=O)c1ccc([C@@H](O)[C@@H](CO)NC(=O)C(Cl)Cl)cc1 [THIAMPHENICOL] | Negative: based on the absence of positive reported data from WMDD
54 | CS(=O)(=O)c1ccc(C2=C(c3ccccc3)C(=O)OC2)cc1 [ROFECOXIB] | Negative: based on the absence of positive reported data from WMDD
55 | CN1[C@@H]2CC[C@H]1C[C@@H](OC(c1ccccc1)c1ccccc1)C2 [BENZTROPINE] | Negative: based on the absence of positive reported data from WMDD
56 | Cc1cc2c(s1)Nc1ccccc1N=C2N1CCN(C)CC1 [OLANZAPINE] | Negative: based on the absence of positive reported data from WMDD
57 | NC(=O)c1ccccc1 [BENZAMIDE] | Positive: weak inducer based on presence of foamy macrophages and cytoplasmic vacuolations
58 | CN1CCN(C2=Nc3cc(Cl)ccc3Nc3ccccc32)CC1 [CLOZAPINE] | Positive: strong inducer confirmed by electron microscopy
59 | COc1ncnc(NS(=O)(=O)c2ccc(N)cc2)c1OC [SULFADOXINE] | Negative: based on the absence of positive reported data from WMDD
